According to US9987315B2 (priority 2005, dated 2018):

Assays:
[1] = system: BGMK; assay type: cell-based, primate
[2] = system: RK-13; assay type: cell-based, rabbit
[3] = system: RL5; assay type: cell-based, rabbit

Measured: effect of rapamycin on replication of myxoma virus (virus titre by foci formation on BGMK cells)

CO[C@H]1C[C@@H]2CC[C@@H](C)[C@@](O)(O2)C(=O)C(=O)N2CCCC[C@H]2C(=O)O[C@H]([C@H](C)C[C@@H]2CC[C@@H](O)[C@H](OC)C2)CC(=O)[C@H](C)/C=C(\C)[C@@H](O)[C@@H](OC)C(=O)[C@H](C)C[C@H](C)/C=C/C=C/C=C/1C [rapamycin]
no effect: [1] | [2] | [3]
